We go through two compounds from ChEMBL document CHEMBL1150756, “Isolation of an anti-inflammatory principle from the fruit juice of Ecballium elaterium” (J Nat Prod, 1988).

The structures appear in SMILES notation.

The test system of one series is Mus musculus. Nature of the series: Antiinflammatory activity in po dosed dd mouse assessed as inhibition of acetic acid-induced vascular permeability administered 30 mins before acetic acid challenge measured after 20 mins. The series is classed as functional.
The nature of series [1]: Toxicity in po dosed dd mouse. The conditions noted are these: in vivo. The series is classed as organism-based.

As usually defined, the ED50 is the dose that gives a 50% effect, or the effect in half of the subjects. As to `CC(=O)OC(C)(C)/C=C/C(=O)[C@](C)(O)[C@H]1[C@H](O)C[C@@]2(C)[C@@H]3CC=C4[C@H](C[C@H](O)C(=O)C4(C)C)[C@]3(C)C(=O)C[C@]12C` [CUCURBITACIN B], in the series on Mus musculus, the median effective dose (ED50) was determined as 6.1 mg/kg.

One may read the LD50 as the dose expected to kill half of the subjects tested. Lower therefore signals greater toxicity. For the compound `CC(=O)OC(C)(C)/C=C/C(=O)[C@](C)(O)[C@H]1[C@H](O)C[C@@]2(C)[C@@H]3CC=C4[C@@H](C[C@H](O)C(=O)C4(C)C)[C@]3(C)C(=O)C[C@]12C` [CUCURBITACIN B], the median lethal dose (LD50) in series [1] amounted to 10.9 mg/kg.
